Patent EP2140864A2 (H. Lundbeck A/S, priority 2001, dated 2002)
Like-named read-outs stand apart in the source and are kept apart here.

Experiments:
human GAL2 receptor = molecular target: T1, human GAL2 receptor (Homo sapiens, UniProt O43603); experiment: Radioligand binding at cloned human GAL2 receptor
T1 construct: expressed in transfected cells
T1 sequence (O43603 1-387): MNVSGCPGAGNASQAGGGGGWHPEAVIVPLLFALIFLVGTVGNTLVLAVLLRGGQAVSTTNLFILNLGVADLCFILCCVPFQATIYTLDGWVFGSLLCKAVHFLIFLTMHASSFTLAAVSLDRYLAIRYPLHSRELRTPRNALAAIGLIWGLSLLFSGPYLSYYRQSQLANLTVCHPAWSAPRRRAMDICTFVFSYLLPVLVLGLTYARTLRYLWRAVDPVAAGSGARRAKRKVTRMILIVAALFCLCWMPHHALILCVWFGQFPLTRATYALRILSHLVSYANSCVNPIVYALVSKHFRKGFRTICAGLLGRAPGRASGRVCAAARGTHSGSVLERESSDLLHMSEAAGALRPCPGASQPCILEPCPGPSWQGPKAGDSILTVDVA
Method in brief: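 Membranes from CHO cells stably expressing human GAL2 and LM(tk-) cells stably expressing human GAL1, resuspended in binding buffer (10 mM NaCl, 20 mM HEPES, pH 7.4). Binding data fitted by nonlinear regression.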

dopamine D5 receptor = molecular target: T2, dopamine D5 receptor (Homo sapiens, UniProt P21918); experiment: Radioligand binding, dopamine D5 receptor
T2 construct: expressed in transfected cells
T2 sequence (P21918 whole entry): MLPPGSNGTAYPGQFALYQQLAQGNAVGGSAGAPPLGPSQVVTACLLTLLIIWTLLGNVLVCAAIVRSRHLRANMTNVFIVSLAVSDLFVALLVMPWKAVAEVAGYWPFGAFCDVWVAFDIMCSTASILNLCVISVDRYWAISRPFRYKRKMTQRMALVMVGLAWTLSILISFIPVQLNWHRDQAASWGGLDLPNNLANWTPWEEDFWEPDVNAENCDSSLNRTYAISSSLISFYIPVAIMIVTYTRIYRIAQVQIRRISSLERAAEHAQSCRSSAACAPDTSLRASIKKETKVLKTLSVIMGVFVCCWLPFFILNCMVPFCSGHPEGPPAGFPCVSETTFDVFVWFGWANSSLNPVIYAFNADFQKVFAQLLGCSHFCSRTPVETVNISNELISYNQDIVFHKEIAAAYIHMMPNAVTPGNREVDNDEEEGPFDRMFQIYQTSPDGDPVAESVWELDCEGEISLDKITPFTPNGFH
Text: Other receptors: Cell membranes expressing human dopamine D1, D2, D4 and rat D3 receptors were purchased through BioSignal, Inc. (Montreal, Canada). Binding assays using the histamine H1 receptor; dopamine receptors; and α1A, α1E, and α2 adrenergic receptors may be carried out according to the procedures described in U.S. Patent No. 5,780,485, the disclosure of which is hereby incorporated by reference in its entirety into this application. Binding assays using the dopamine D5 receptor may be carried out according to the procedures described in U.S. Patent No. 5,882,855, the disclosure of which is hereby incorporated by reference in its entirety into this application. Binding assays for the human α1D adrenergic receptor may be carried out according to the procedures described in U.S. Patent No. 6,156,518, the disclosure of which is hereby incorporated by reference in its entirety into this application.
(§1) Binding data were analyzed using nonlinear regression and statistical techniques available in the GraphPAD Prism package (San Diego, CA). Enzymatic assay data were derived from a standard curve of reference compound data.

human 5HT7 = molecular target: T3, human 5HT7 (Homo sapiens, UniProt P34969); experiment: Radioligand binding, 5HT7 receptor ([3H]-serotonin)
T3 construct: expressed in transfected cells
T3 sequence (P34969 1-445 isoform P34969-2): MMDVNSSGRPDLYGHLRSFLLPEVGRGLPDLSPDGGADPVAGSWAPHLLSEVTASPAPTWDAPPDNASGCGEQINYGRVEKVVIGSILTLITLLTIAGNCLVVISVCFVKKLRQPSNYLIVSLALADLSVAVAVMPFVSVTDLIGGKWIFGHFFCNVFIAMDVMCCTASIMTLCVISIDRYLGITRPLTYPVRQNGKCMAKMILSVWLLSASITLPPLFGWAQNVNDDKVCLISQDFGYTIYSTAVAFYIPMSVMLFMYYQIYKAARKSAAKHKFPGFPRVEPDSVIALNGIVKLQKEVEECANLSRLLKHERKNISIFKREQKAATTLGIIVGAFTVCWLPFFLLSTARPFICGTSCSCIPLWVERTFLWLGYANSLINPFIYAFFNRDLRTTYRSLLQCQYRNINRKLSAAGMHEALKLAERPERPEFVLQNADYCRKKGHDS
Method: (§2) Human 5HT1B, 5HT1D, 5HT1E, 5HT1F, and 5HT7 Receptors: The cell lysates of LM(tk-) clonal cell line stably transfected with the genes encoding each of these 5HT receptor-subtypes were prepared as described above. Cell membranes were suspended in 50mM Tris-HCl buffer (pH 7.4 at 37°C) containing 10 mM MgCl2, 0.2 mM EDTA, 10 µM pargyline, and 0.1% ascorbate. […] Nonspecific binding was determined in the presence of 10 µM serotonin. The bound radioligand was separated by filtration through GF/B filters using a cell harvester.
as §1

rat 5HT2C receptor = molecular target: T4, rat 5HT2C receptor (Rattus norvegicus, UniProt P08909); experiment: Radioligand binding, 5HT2C receptor
T4 construct: expressed in transfected cells
T4 sequence (P08909 33-460): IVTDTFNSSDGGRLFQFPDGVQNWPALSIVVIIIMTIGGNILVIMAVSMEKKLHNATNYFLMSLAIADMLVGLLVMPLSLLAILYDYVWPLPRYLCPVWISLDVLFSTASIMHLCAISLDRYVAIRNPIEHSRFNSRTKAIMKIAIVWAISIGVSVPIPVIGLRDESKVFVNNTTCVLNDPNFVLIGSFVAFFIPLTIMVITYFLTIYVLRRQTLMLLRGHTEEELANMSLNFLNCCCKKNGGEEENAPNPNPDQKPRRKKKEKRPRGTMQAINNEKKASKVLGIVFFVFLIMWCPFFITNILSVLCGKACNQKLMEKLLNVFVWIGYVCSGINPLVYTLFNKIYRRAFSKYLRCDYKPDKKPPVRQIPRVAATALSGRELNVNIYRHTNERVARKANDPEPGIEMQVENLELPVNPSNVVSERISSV
Method: Other 5-HT Receptors: Other serotonin receptor binding assays were performed according to published methods: rat 5HT2C receptor (Julius et al., 1988); and 5-HT6 (Monsma, et al., 1993). The binding assays using the 5-HT4 receptor were performed according to the procedures described in U.S. Patent No. 5,766,879, the disclosure of which is hereby incorporated by reference in its entirety into this application.
as §1

human 5HT1E = molecular target: T5, human 5HT1E (Homo sapiens, UniProt P28566); experiment: Radioligand binding, 5HT1E receptor ([3H]-serotonin)
T5 construct: expressed in transfected cells
T5 sequence (P28566 whole entry): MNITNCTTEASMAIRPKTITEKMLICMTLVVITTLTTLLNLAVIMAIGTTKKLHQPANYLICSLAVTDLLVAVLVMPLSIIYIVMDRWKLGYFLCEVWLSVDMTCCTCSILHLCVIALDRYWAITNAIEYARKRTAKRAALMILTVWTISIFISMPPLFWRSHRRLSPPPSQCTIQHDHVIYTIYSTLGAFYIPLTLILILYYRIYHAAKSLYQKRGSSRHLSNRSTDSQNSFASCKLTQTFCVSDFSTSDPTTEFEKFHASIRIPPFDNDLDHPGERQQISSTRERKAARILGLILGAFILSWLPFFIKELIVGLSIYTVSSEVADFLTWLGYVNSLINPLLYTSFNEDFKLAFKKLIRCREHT
Method: as §2, §1

[1] = pyrimidines, read-out: Ki GalR2
[2] = Table 10; Ki hD5 divided by Ki hGAL3
[3] = Table 8; Ki h5HT7 divided by Ki hGAL3
[4] = Table 8; Ki r5HT2C divided by Ki hGAL3
[5] = Table 8; Ki h5HT1E divided by Ki hGAL3

SMILES	Ki (human GAL2 receptor; [1]) [nM]	Ki (dopamine D5 receptor; Table 9; read-out: hD5 Ki) [nM]	selectivity ratio hD5 (dopamine D5 receptor; [2])	Ki (human 5HT7; Table 7; read-out: h5HT7 Ki) [nM]	selectivity ratio h5HT7 (human 5HT7; [3])	Ki (rat 5HT2C receptor; Table 7; read-out: r5HT2C Ki) [nM]	selectivity ratio r5HT2C (rat 5HT2C receptor; [4])	Ki (human 5HT1E; Table 7; read-out: h5HT1E Ki) [nM]	selectivity ratio h5HT1E (human 5HT1E; [5])	Ki (human GAL2 receptor; indolones, read-out: Ki GalR2) [nM]	Ki (human GAL2 receptor; read-out: Ki GalR2, pyrimidines) [nM]	Ki (dopamine D5 receptor; read-out: hD5 Ki; Table 9) [nM]	Ki (human 5HT7; read-out: h5HT7 Ki; Table 7) [nM]	Ki (rat 5HT2C receptor; read-out: r5HT2C Ki; Table 7) [nM]	Ki (human 5HT1E; read-out: h5HT1E Ki; Table 7) [nM]
CN(CCc1c[nH]c2ccccc12)c1nc(Nc2ccc(F)c(F)c2)cc(N2CCCCC2)n1 [Example 15]	624	78	1	2530	>30	572	8	11000	>100	–	–	–	–	–	–
O=C1C(=Nc2ccc(Cl)cc2)c2ccccc2N1c1ccccc1 [Example 97, 3-[(4-CHLOROPHENYL)IMINO]-1-PHENYL-1,3-DIHYDRO-2H-INDOL-2-ONE]	–	10100	>100	11300	>100	1950	>30	22700	>100	> 10000	–	–	–	–	–
O=C1C(=Nc2ccc(Br)cc2)c2ccccc2N1c1ccccc1 [Example 98, 3-[(4-BROMOPHENYL)IMINO]-1-PHENYL-1,3-DIHYDRO-2H-INDOL-2-ONE]	–	1200	>30	8460	>100	2260	>30	16200	>100	> 10000	–	–	–	–	–
Cc1ccc(Nc2cc(N3CCCCC3)nc(N(C)CCc3c[nH]c4ccccc34)n2)cc1 [Example 11]	681	64	0.7	1010	11	802	9	9170	>100	–	–	–	–	–	–
O=C1C(=Nc2cc(Cl)cc(Cl)c2)c2ccccc2N1c1ccccc1 [Example 103, 3-[(3,5-DICHLOROPHENYL)IMINO]-1-PHENYL-1,3-DIHYDRO-2H-INDOL-2-ONE]	–	–	–	–	–	–	–	–	–	> 10000	–	–	–	–	–
Cc1ccc(Nc2cc(N3CCCCC3)nc(N3CCN(c4ncccc4C(F)(F)F)CC3)n2)cc1 [Example 34]	168	111	5	4440	>100	2080	>30	28300	>100	–	–	–	–	–	–
O=C1C(=Nc2ccc(C(F)(F)F)cc2)c2ccccc2N1c1ccccc1 [Example 95, 1-PHENYL-3-[[4-(TRIFLUOROMETHYL)PHENYL]IMINO]-1,3-DIHYDRO-2H-INDOL-2-ONE]	–	2590	>30	11600	>100	3470	>100	27200	>100	> 10000	–	–	–	–	–
COc1cccc(Nc2cc(N3CCCCC3)nc(N(C)CCc3c[nH]c4ccccc34)n2)c1 [Example 17]	2090	89	1	1800	21	562	6	33500	>100	–	–	–	–	–	–
CN(C)c1cc(Nc2ccc(Cl)c(Cl)c2)nc(Nc2ccccc2)n1 [Example 60]	> 5000	538	6	3240	>30	1780	21	1180	14	–	–	–	–	–	–
O=C1C(=Nc2cccc(C(F)(F)F)c2)c2ccccc2N1c1ccccc1 [Example 92, 1-PHENYL-3- [[3-(TRIFLUOROMETHYL)PHENYL]IMINO]-1,3-DIHYDRO-2H-INDOL-2-ONE]	–	–	>100	–	–	–	–	–	>100	–	–	–	–	–	–
O=C1C(=Nc2cccc(Cl)c2)c2ccccc2N1c1ccccc1 [Example 94, 3-[(3-CHLOROPHENYL)IMINO]-1-PHENYL-1,3-DIHYDRO-2H-INDOL-2-ONE]	–	727	15	8020	>100	4100	>30	25200	>100	> 10000	–	–	–	–	–
Cc1ccc(Nc2cc(N3CCCCC3)nc(N(C)CCc3ccccc3)n2)cc1 [Example 22]	176	63	2	2670	>30	1720	>30	13200	>100	–	–	–	–	–	–
COC[C@@H]1[C@@H](c2ccccc2)OCCN1c1nc(Nc2ccc(C)cc2)cc(N2CCCCC2)n1 [Example 49]	–	–	2	–	>30	–	>30	–	>100	–	3270	328	12300	6690	23900
Cc1ccc(Nc2cc(N(C)C)nc(N(C)CCc3c[nH]c4ccccc34)n2)cc1 [Example 77]	709	122	2	1550	20	456	6	5890	>30	–	–	–	–	–	–
